Measurements: patent publication US20230391756A1, “NEW COMPOUND” (JANSSEN PHARMACEUTICA NV, priority 2020, published 2023)

What was measured:
TNF = test: PBMC assay: TNF cytokine level after LPS stimulation; type: cell-based; conditions: human PBMCs, 100 ng/ml LPS for 6 hrs, MSD, read-out: TNFα EC50
Description: (§1) Peripheral venous blood was collected from healthy individuals and human peripheral blood mononuclear cells (PBMCs) were isolated from blood by Ficoll-Histopaque (Sigma-Aldrich, A0561) density gradient centrifugation. After isolation, PBMCs were stored in liquid nitrogen for later use. Upon thawing, PBMC cell viability was determined in growth medium (RPMI media supplemented with 10% fetal bovine serum, 1% Pen-Strep and 1% L-glutamine). […] PBMCs were added at a density of 7.5×10^4 cells per well and incubated for 30 min in a 5% CO2 incubator at 37° C. LPS stimulation was performed by addition of 100 ng/ml LPS (final concentration, Invivogen, tlrl-smlps) for 6 hrs followed by collection of cellular supernatant and the analysis of IL-1β (μM) and TNF cytokines levels (μM) via MSD technology according to manufacturers' guidelines (MSD, K151A0H).

[1] = tested on: NLRP3 inflammasome pathway (IL-1β); test: PBMC assay: IL-1β release after LPS stimulation; type: cell-based; conditions: human PBMCs, 100 ng/ml LPS for 6 hrs, MSD
Description: The activity of a compound according to the present invention can be assessed by in vitro methods.
as §1

Row | Structure (SMILES) | EC50 (TNF) [µM] | IC50 [1] [µM] | melting point [°C]
1 | CCn1nc(CC(=O)N[C@H]2C[C@@](C)(O)C2)c(=O)c2ccc(Br)cc21 [F-5] | > 20 | 0.25 | 203.3
2 | CC(C)n1nc(CC(=O)N[C@H]2C[C@@H](C(C)(C)O)C2)c(=O)c2ccc(C(F)(F)F)cc21 [F-10] | > 20 | 11.6 | 181
3 | CC(C)n1nc(CC(=O)Nc2ccc3cncn3c2)c(=O)c2ccc(C(F)(F)F)cc21 [F-15] | 11 | 0.239 | 152.7
4 | CC(C)n1nc(CC(=O)Nc2ccc(=O)n(C)n2)c(=O)c2ccc(C(F)(F)F)cc21 [F-18] | > 20 | 0.88 | 258.8
5 | CC(C)n1nc(CC(=O)Nc2ccc3nncn3c2)c(=O)c2ccc(C(F)(F)F)cc21 [F-20] | > 20 | 0.178 | 291.3
6 | CC(C)n1nc(CC(=O)N[C@H]2C[C@@](C)(O)C2)c(=O)c2ccc(C(F)(F)F)cc21 [F-21] | > 20 | 0.836 | 200.9
7 | CCn1nc(CC(=O)N[C@H]2C[C@@](C)(O)C2)c(=O)c2ccc(Cl)cc21 [F-25] | > 20 | 2.14 | 191.5
8 | CC(C)c1ccc2c(=O)c(CC(=O)N[C@H]3C[C@@](C)(O)C3)nn(C(C)C)c2c1 [F-26] | > 20 | 1.08 | 201.5
9 | CC(C)n1nc(CC(=O)Nc2ccc3nncn3c2)c(=O)c2ccc(Cl)cc21 [F-29] | > 20 | 0.62 | 292
10 | CC(C)n1nc(CC(=O)Nc2ccc3nncn3n2)c(=O)c2ccc(Cl)cc21 [F-30] | 16.4 | 0.224 | 241.6
11 | CC(C)c1ccc2c(=O)c(CC(=O)Nc3ccc4nncn4c3)nn(C(C)C)c2c1 [F-31] | 11.4 | 0.22 | 181.4
12 | CC(C)c1ccc2c(=O)c(CC(=O)Nc3ccc4nncn4n3)nn(C(C)C)c2c1 [F-32] | 6.98 | 0.109 | 121.3
13 | CC(C)n1nc(CC(=O)Nc2ccc(=O)n(C)n2)c(=O)c2ccc(Br)cc21 [F-33] | > 20 | 0.433 | 221.9
14 | CCn1nc(CC(=O)Nc2ccc3nncn3n2)c(=O)c2ccc(Cl)cc21 [F-34] | > 20 | 0.49 | 206.5
15 | CC(C)n1nc(CC(=O)Nc2ccc3c(C#N)ncn3c2)c(=O)c2ccc(C(F)(F)F)cc21 [F-36] | > 20 | 0.99 | 259.8
16 | Cc1nnc2cc(NC(=O)Cc3nn(C(C)C)c4cc(C(F)(F)F)ccc4c3=O)ccn12 [F-41] | > 20 | 6.35 | 216.3

Row | Structure (SMILES) | EC50 (TNF) [µM] | IC50 [1] [µM] | melting point [°C]
17 | CCn1nc(CC(=O)Nc2ccc3nncn3c2)c(=O)c2ccc(C3CCC3)cc21 [F-46] | > 20 | 4.52 | 113.1
18 | CC(C)n1nc(CC(=O)Nc2cc(Cl)c(=O)n(C(F)F)c2)c(=O)c2ccc(C(F)(F)F)cc21 [F-47] | > 20 | 3.65 | 233
19 | CC(C)n1nc(CC(=O)Nc2ncc3ncn(C)c3n2)c(=O)c2ccc(C(F)(F)F)cc21 [F-50] | > 20 | 2.95 | 281.4
20 | CC(C)c1ccc2c(=O)c(CC(=O)Nc3ccc4nccn4n3)nn(C3CC3)c2c1 [F-58] | 15.8 | 0.37 | 190.1
21 | CCn1nc(CC(=O)Nc2ccc3nccn3n2)c(=O)c2ccc(C3CC3)cc21 [F-62] | > 20 | 0.275 | 193.4
22 | CC(F)(F)c1ccc2c(=O)c(CC(=O)Nc3ccc4nccn4n3)nn(C3CC3)c2c1 [F-64] | 7.89 | 0.26 | 188.9
23 | O=C(Cc1nn(C2CC2)c2cc(Br)ccc2c1=O)Nc1ccc2nccn2n1 [F-66] | > 20 | 0.23 | 244.6
24 | CC(F)(F)c1ccc2c(=O)c(CC(=O)Nc3ccc4nncn4c3)nn(C3CC3)c2c1 [F-67] | > 20 | 0.22 | 145.4
25 | CCn1nc(CC(=O)Nc2ccc3nncn3c2)c(=O)c2ccc(C(C)(F)F)cc21 [F-68] | > 20 | 0.2 | 279.8
26 | Cc1nnc2ccc(NC(=O)Cc3nn(C(C)C)c4cc(C(F)(F)F)ccc4c3=O)nn12 [F-135] | > 20 | 0.59 | 
27 | CC(C)c1ccc2c(=O)c(CC(=O)Nc3ccc4nncn4n3)nn(C3CC3)c2c1 [F-140] | 4.88 | 0.143 | 
28 | CCn1nc(CC(=O)Nc2ccc3nncn3n2)c(=O)c2ccc(C(C)C)cc21 [F-142] | ~12.8 | 0.119 | 
29 | CC(C)n1nc(CC(=O)Nc2ccc3nncn3n2)c(=O)c2ccc(C(F)(F)F)cc21 [F-143] | 7.58 | 0.109 | 
30 | CC(C)n1nc(CC(=O)Nc2ccc3nncn3c2)c(=O)c2ccc(C(C)(F)F)cc21 [F-149, N-([1,2,4]triazolo[4,3-a]pyridin-6-yl)-2-(7-(1,1-difluoroethyl)-1-isopropyl-4-oxo-1,4-dihydrocinnolin-3-yl)acetamide] | > 20 | 0.19 | 
31 | CC(C)n1nc(NC(=O)Nc2ccc3nncn3c2)c(=O)c2ccc(C(F)(F)F)cc21 [F-150, 1-([1,2,4]triazolo[4,3-a]pyridin-6-yl)-3-(1-isopropyl-4-oxo-7-(trifluoromethyl)-1,4-dihydrocinnolin-3-yl)urea] | 17.1 | 2.45 | 

Second part, the compound after the results:

Row | EC50 (TNF) [µM] | IC50 [1] [µM] | melting point [°C] | Structure (SMILES)
32 | > 20 | 0.102 | 294.3 | CCn1nc(CC(=O)Nc2ccc3nncn3c2)c(=O)c2ccc(Br)cc21 [F-6]
33 | > 20 | 5.35 | 212.3 | CC(C)n1nc(CC(=O)Nc2ccn3cnnc3c2)c(=O)c2ccc(C(F)(F)F)cc21 [F-17]
34 | 8.29 | 0.092 | 241.6 | CC(C)n1nc(CC(=O)Nc2ccc3c(c2)[nH]c(=O)n3C)c(=O)c2ccc(C(F)(F)F)cc21 [F-19]
35 | 12.2 | 0.464 | 178.3 | CC(C)n1nc(CC(=O)Nc2ccncn2)c(=O)c2ccc(C(F)(F)F)cc21 [F-22]
36 | > 20 | 0.814 | 206.8 | CC(C)n1nc(CC(=O)Nc2ccc3ncnn3c2)c(=O)c2ccc(C(F)(F)F)cc21 [F-24]
37 | > 20 | 0.62 | 254.3 | CCn1nc(CC(=O)Nc2ccc3nncn3c2)c(=O)c2ccc(Cl)cc21 [F-27]
38 | > 20 | 0.23 | 194.9 | CC(C)n1nc(CC(=O)N[C@H]2C[C@@](C)(O)C2)c(=O)c2ccc(Cl)cc21 [F-28]
39 | 17.4 | 2.11 | 226.8 | CC(C)n1nc(CC(=O)Nc2ccc3nnc(C(F)F)n3c2)c(=O)c2ccc(C(F)(F)F)cc21 [F-39]
40 | 17.8 | 7.76 | 179.8 | CC(C)n1nc(CC(=O)Nc2ccc3nncn3c2)c(=O)c2ccc(C3CCC3)cc21 [F-42]
41 | > 20 | 5.1 | 221 | CC(C)n1nc(CC(=O)NC2CCc3ncn(C)c3C2)c(=O)c2ccc(C(F)(F)F)cc21 (centres unmarked) [F-43]
42 | > 20 | 3.26 | 271 | CCn1nc(CC(=O)Nc2ncc3ncn(C)c3n2)c(=O)c2ccc(C(F)(F)F)cc21 [F-48]
43 | > 20 | 3.19 | 156.4 | CCC(C)n1nc(CC(=O)Nc2ccc3nncn3c2)c(=O)c2ccc(C(F)(F)F)cc21 (centres unmarked) [F-49]
44 | > 20 | 2.48 | 233.4 | Cc1ncc2n1CCC(NC(=O)Cc1nn(C(C)C)c3cc(C(F)(F)F)ccc3c1=O)C2 (centres unmarked) [F-51]
45 | > 20 | 0.514 | 237.8 | CCn1nc(CC(=O)Nc2ccc3ncn(C)c3n2)c(=O)c2ccc(C(F)(F)F)cc21 [F-57]
46 | ~12.8 | 0.35 | 193 | CCn1nc(CC(=O)Nc2ccc3nccn3n2)c(=O)c2ccc(C(F)(F)F)cc21 [F-60]
47 | > 20 | 0.29 | 216.4 | O=C(Cc1nn(C2CC2)c2cc(C(F)(F)F)ccc2c1=O)Nc1ccc2nccn2n1 [F-61]
48 | 7.84 | 0.147 | 252.9 | CCn1nc(CC(=O)Nc2ccc3nncn3n2)c(=O)c2ccc(C(C)(F)F)cc21 [F-70]
49 | > 20 | 0.105 | 310 | O=C(Cc1nn(C2CC2)c2cc(Br)ccc2c1=O)Nc1ccc2nncn2c1 [F-71]
50 | > 20 | 0.048 |  | CC(C)n1nc(CC(=O)Nc2ccc3nncn3n2)c(=O)c2ccc(Br)cc21 [F-134]
51 | 4.46 | 0.28 |  | O=C(Cc1nn(C2CC2)c2cc(C3CC3)ccc2c1=O)Nc1ccc2nncn2n1 [F-137]
52 | 3.43 | 0.24 |  | CC(C)n1nc(CC(=O)Nc2ccc3nccn3n2)c(=O)c2ccc(C(C)(F)F)cc21 [F-138]
53 | > 20 | 0.078 |  | O=C(Cc1nn(C2CC2)c2cc(Br)ccc2c1=O)Nc1ccc2nncn2n1 [F-144]
